Results: publication PMC8802628, “Selective activation of PFKL suppresses the phagocytic oxidative burst” (Cell, 2021)

Columns and labels:
[1] = molecular target: T1, PFKL (Homo sapiens, UniProt P17858); experiment: Thermal proteome profiling (TPP) of neutrophil lysates; format: binding; conditions: 10 μM NA-11, 37°C to 65°C
T1 construct: endogenous in cells; host or cells: THP-1 cell lysate
T1 sequence (P17858 2-780 limits assumed): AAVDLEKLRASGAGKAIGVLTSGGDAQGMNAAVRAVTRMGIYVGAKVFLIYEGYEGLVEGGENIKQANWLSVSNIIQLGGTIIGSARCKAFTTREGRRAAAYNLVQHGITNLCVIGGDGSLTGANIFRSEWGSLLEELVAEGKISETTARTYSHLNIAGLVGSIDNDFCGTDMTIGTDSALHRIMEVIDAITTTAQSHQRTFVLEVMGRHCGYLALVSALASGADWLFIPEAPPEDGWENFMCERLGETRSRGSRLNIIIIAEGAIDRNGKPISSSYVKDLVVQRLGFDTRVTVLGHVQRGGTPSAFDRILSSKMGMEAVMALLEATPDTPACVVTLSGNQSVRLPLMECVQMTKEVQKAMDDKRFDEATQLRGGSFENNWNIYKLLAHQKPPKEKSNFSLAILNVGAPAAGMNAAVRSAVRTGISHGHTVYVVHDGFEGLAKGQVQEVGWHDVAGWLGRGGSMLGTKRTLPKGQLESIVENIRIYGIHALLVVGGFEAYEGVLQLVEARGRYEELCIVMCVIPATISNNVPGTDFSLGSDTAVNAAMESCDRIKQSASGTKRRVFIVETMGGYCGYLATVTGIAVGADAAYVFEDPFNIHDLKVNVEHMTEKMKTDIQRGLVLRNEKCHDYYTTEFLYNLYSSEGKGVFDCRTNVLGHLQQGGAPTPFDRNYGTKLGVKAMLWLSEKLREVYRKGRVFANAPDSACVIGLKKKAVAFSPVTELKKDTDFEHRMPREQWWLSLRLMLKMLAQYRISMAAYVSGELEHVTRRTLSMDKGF
Description: Neutrophils (3 × 10^7) were treated with 50 nM PMA for 20 min. Cell were washed twice in D-PBS, resuspended in KB buffer (25 mM Tris-HCL pH 7.5, 1 mM DTT, 10 mM MgCl2) and frozen in liquid nitrogen. Lysates were prepared by 5-7 freeze-thaw cycles in KB buffer. Protein concentration was determined via Bradford assay and lysates were incubated on ice for 30 min with either 10 μM NA-11 or DMSO vehicle. Samples were analyzed in two formats: (1) classical thermal proteome profiling (TPP) with full melting curves using 16-plex TMT labeling (8 temperatures between 37-65°C), and (2) Proteome Integral Solubility Alteration (PISA) assay with aggregated protein abundance from a defined temperature range using 10-plex TMT labeling (Five replicates 44-58°C). […]
For the classical TPP, quantitative data from each temperature were used to generate a thermal titration curve and calculate a melting point. PSM level quantitation was log2 transformed and summarized to protein level by aggregating all PSMs from the same primary Uniprot reference, and systematic variation between the treatments was normalized at each temperature. […] A quality score is calculated for each protein by evaluating R squares, curve slopes and similarity in slopes between the two fitted curves. […] Fold changes and p values were calculated between pre-defined treatment groups by the MSstats package. […]

[2] = tested on: PMNs; experiment: NADPH/NADP+ detection assay in neutrophils; format: cell-based, human
Description: The ratio of NADPH/NADP^+ (or NADH/NAD^+) was calculated after measuring the individual concentrations of NADPH and NADP^+ (or NADH and NAD^+) with NADP/NADPH-Glo (or NAD/NADH-Glo) assays (Promega). […] Cells were lysed in plates by addition of 1% dodecyltrimethylammonium bromide (DTAB). To measure NADPH, half of the samples was heated at 60 °C for 30 min. The other half was treated with HCl before heating to 60°C, to measure NADP^+. All samples were neutralized before adding luciferase detection reagent, then incubated for 1 h with gentle shaking. Luminescence was recorded on a plate reader (Envision).

CC(=O)Nc1ccc2c(c1)OCc1cc(-c3ccccc3C#CCCCO)nn1C2 [NA-11]
thermal shift in melting temperature (Tm) of PFKL [1]: 4 °C
NADPH replenishment / turnover after apocynin ([2]; PMA 30 min, then apocynin): slower to replenish NADPH
NADPH/NADP+ ratio in resting cells ([2]; resting neutrophils): did not change the NADPH/NADP^+ ratio
